From patent publication US12227520B2 (priority 2019, dated 2025)
Where two headings read alike, the source gives them in different places.

Key:
HIV-1 (IIIB) = test: Antiviral assay in MT-4 cells (HIV MT-4 antiviral assay); type: cell-based; details: HIV-1 (IIIB) in MT-4 cells, 5 days incubation
Procedure, shortened: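 Read-out is CellTiter-Glo chemiluminescence after 5-day culture at 37° C, giving protection of MT-4 cells from HIV-1 IIIB cytopathicity. Compounds tested in 1:3 dilution series in complete RPMI; controls were no drug, mock infection and 5 μM AZT.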

uninfected MT-4 cells = test: Cytotoxicity assay in MT-4 cells; type: cell-based, human; details: uninfected MT-4 cells, 5 days incubation
Procedure, shortened: (§1)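 For cytotoxicity, uninfected MT-4 cells were incubated with compounds 5 days at 37 °C, with 10 μM puromycin marking base cytotoxicity. Parallel plates used HIV-1 IIIB-infected (1:250 stock dilution) or mock cells with 5 μM AZT and no-drug controls. Read-out: CellTiter-Glo chemiluminescence.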

pLai RLuc reporter virus = test: microbe, parasite or virus in culture; type: cell-based, HIV
Procedure, shortened: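 Read-out is Renilla luciferase after 72 h at 37 °C in MT-4 cells infected 2 h beforehand with pLai RLuc reporter virus; compounds diluted 1:3.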

[1] = Cytotoxicity assay in MT-4 cells; type: cell-based, human; details: human, uninfected MT-4 cells, 5 days incubation; read-out: CC50
Procedure, shortened: as §1

[2] = Human immunodeficiency virus 1, 72 h, read-out: Antiviral Serum Shift RLuc 50% HS, HS/CCM (RPMI media, 10% FBS, 50% HS, 1% P/S), 72-h incubation
[3] = Human immunodeficiency virus 1, 72 h, read-out: Antiviral Serum Shift RLuc CCM, CCM (RPMI media, 10% FBS, 1% P/S), 72-h incubation
[4] = read-out: Antiviral Serum Shift RLuc 50% HS, HS/CCM (RPMI media, 10% FBS, 50% HS, 1% P/S), 72-h incubation
[5] = read-out: Antiviral Serum Shift RLuc CCM, CCM (RPMI media, 10% FBS, 1% P/S), 72-h incubation
[6] = Human immunodeficiency virus 1, IIIB, MT4, 120 h, read-out: EC50
[7] = Human immunodeficiency virus 1, IIIB, MT4, 120 h

| Compound | EC50 (HIV-1 (IIIB); read-out: EC50) [nM] | CC50 (uninfected MT-4 cells) [nM] | EC50 (pLai RLuc reporter virus; [2]) [nM] | EC50 (pLai RLuc reporter virus; [3]) [nM] | EC50 (HIV-1 (IIIB)) [nM] | EC50 (pLai RLuc reporter virus; [4]) [nM] | EC50 (pLai RLuc reporter virus; [5]) [nM] | EC50 (HIV-1 (IIIB); [6]) [nM] | CC50 at 5 days [1] [nM] | EC50 (HIV-1 (IIIB); [7]) [nM] |
| --- | --- | --- | --- | --- | --- | --- | --- | --- | --- | --- |
| O=C(NCc1c(F)cc(F)cc1F)c1cn2c(c(O)c1=O)C(=O)N1CC2CCc2ccccc21 (single isomer, unassigned) [Example 38-2] | 0.93 | 12800 | – | – | – | – | – | – | – | – |
| O=C(NCc1ccc(F)cc1F)c1cn2c(c(O)c1=O)C(=O)N1CC2CCc2cc(F)c(F)cc21 (single isomer, unassigned) [Example 50-1] | – | > 13500 | 0.948 | 0.265 | 1.39 | – | – | – | – | – |
| O=C(NCc1ccc(F)cc1F)c1cn2c(c(O)c1=O)C(=O)N1CC2CCc2cc(F)c(F)cc21 (single isomer, unassigned) [Example 50-2] | – | 32300 | – | – | 32.5 | – | – | – | – | – |
| O=C(NCc1ccc(F)cc1F)c1cn2c(c(O)c1=O)C(=O)N1C[C@H](F)CC[C@H]2C1 (single isomer, unassigned) [Example 53-1] | 2.13 | 13200 | – | 0.541 | – | 6.13 | – | – | – | – |
| O=C(NCc1ccc(F)cc1F)c1cn2c(c(O)c1=O)C(=O)N1C[C@H](F)CC[C@H]2C1 (single isomer, unassigned) [Example 53-4] | 4.72 | > 44400 | – | – | – | 18.3 | 0.696 | – | – | – |
| O=C(NCc1ccc(F)cc1F)c1cn2c(c(O)c1=O)C(=O)N1CC2CCc2cc(F)ccc21 (single isomer, unassigned) [Example 55-2] | – | 7330 | 1.32 | 0.312 | 1.8 | – | – | – | – | – |
| O=C(NCc1c(F)cc(F)cc1F)c1cn2c(c(O)c1=O)C(=O)N1CCCC(CF)C2C1 (single isomer, unassigned) [Example 194-2, 6-(fluoromethyl)-12-hydroxy-1,11-dioxo-N-(2,4,6-trifluorobenzyl)-1,4,5,6,7,11-hexahydro-3H-2,7-methanopyrido[1,2-a][1,4]diazonine-10-carboxamide] | 1.5 | 10500 | – | – | – | 2.99 | 0.378 | – | – | – |
| O=C(NCc1c(F)cc(F)cc1F)c1cn2c(c(O)c1=O)C(=O)N1CCCC(CF)C2C1 (single isomer, unassigned) [Example 194-3, 6-(fluoromethyl)-12-hydroxy-1,11-dioxo-N-(2,4,6-trifluorobenzyl)-1,4,5,6,7,11-hexahydro-3H-2,7-methanopyrido[1,2-a][1,4]diazonine-10-carboxamide] | 1.28 | 11500 | – | – | – | 139 | 0.554 | – | – | – |
| O=C(NCc1c(F)cc(F)cc1F)c1cn2c(c(O)c1=O)C(=O)N1CCCC(CF)C2C1 (single isomer, unassigned) [Example 194-4, 6-(fluoromethyl)-12-hydroxy-1,11-dioxo-N-(2,4,6-trifluorobenzyl)-1,4,5,6,7,11-hexahydro-3H-2,7-methanopyrido[1,2-a][1,4]diazonine-10-carboxamide] | 1.75 | 11300 | – | – | – | 3.48 | 0.397 | – | – | – |
| CC1CCCN2CC1n1cc(C(=O)NCc3ccc(F)cc3F)c(=O)c(O)c1C2=O (stereo not shown) [Example 17-2b, N-(2,4-difluorobenzyl)-12-hydroxy-6-methyl-1,11-dioxo-1,4,5,6,7,11-hexahydro-3H-2,7-methanopyrido[1,2-a][1,4]diazonine-10-carboxamide] | 1.2 | 11000 | – | – | – | 101 | 0.31 | – | – | – |
| CC[C@]12CCCCN(C1)C(=O)c1c(O)c(=O)c(C(=O)NCc3ccc(F)cc3F)cn12 [Example 134-1, (7S)—N-(2,4-difluorobenzyl)-7-ethyl-12-hydroxy-1,11-dioxo-1,4,5,6,7,11-hexahydro-3H-27-methanopyrido[1,2-a][1,4]diazonine-10-carboxamide] | 3.29 | 16200 | – | – | – | – | – | – | – | – |
| CC[C@@]12CCCCN(C1)C(=O)c1c(O)c(=O)c(C(=O)NCc3ccc(F)cc3F)cn12 [Example 134-2, (7R)—N-(2,4-difluorobenzyl)-7-ethyl-12-hydroxy-1,11-dioxo-1,4,5,6,7,11-hexahydro-3H-27-methanopyrido[1,2-a][1,4]diazonine-10-carboxamide] | 5.7 | 10600 | – | – | – | – | – | – | – | – |
| O=C(NCc1c(F)cc(F)cc1F)c1cn2c(c(O)c1=O)C(=O)N1C[C@@H]2CCC[C@@H]1CF [Example 180, (3R,7S)-3-(fluoromethyl)-12-hydroxy-1,11-dioxo-N-(2,4,6-trifluorobenzyl)-1,4,5,6,7,11-hexahydro-3H-2,7-methanopyrido[1,2-a][1,4]diazonine-10-carboxamide] | 1.21 | 10400 | – | – | – | 13.5 | 0.32 | – | – | – |
| C[C@H]1CC[C@H](C)N2C[C@H]1n1cc(C(=O)NCc3c(F)cc(F)cc3F)c(=O)c(O)c1C2=O [Example 186, (3S,6S,7S)-12-hydroxy-3,6-dimethyl-1,11-dioxo-N-(2,4,6-trifluorobenzyl)-1,4,5,6,7,11-hexahydro-3H-2,7-methanopyrido[1,2-a][1,4]diazonine-10-carboxamide] | – | – | 60.2 | 0.306 | – | – | – | 0.612 | 11400 | – |
| C[C@H]1CC[C@H](C)N2C[C@H]1n1cc(C(=O)NCc3ccc(F)cc3F)c(=O)c(O)c1C2=O [Example 187, (3S,6S,7S)—N-(2,4-difluorobenzyl)-12-hydroxy-3,6-dimethyl-1,11-dioxo-1,4,5,6,7,11-hexahydro-3H-2,7-methanopyrido[1,2-a][1,4]diazonine-10-carboxamide] | – | – | 44 | 0.383 | – | – | – | 1.18 | 10800 | – |
| O=C(NCc1ccc(F)cc1F)c1cn2c(c(O)c1=O)C(=O)N1C[C@@H]2CC=C[C@@H]1CF [Example 188] | – | – | 3.48 | 0.421 | – | – | – | – | 12200 | 1.19 |
| O=C(NCc1ccc(F)cc1F)c1cn2c(c(O)c1=O)C(=O)N1C[C@@H]2CCC[C@@H]1C(F)F [Example 189, (3R,7S)—N-(2,4-difluorobenzyl)-3-(difluoromethyl)-12-hydroxy-1,11-dioxo-1,4,5,6,7,11-hexahydro-3H-2,7-methanopyrido[1,2-a][1,4]diazonine-10-carboxamide] | – | – | 6.06 | 0.411 | – | – | – | 1.56 | 12300 | – |
| C[C@H]1CCCN2CC1n1cc(C(=O)NCc3c(F)cc(F)cc3F)c(=O)c(O)c1C2=O (stereo partly drawn) [Example 190, (6S)-12-hydroxy-6-methyl-1,11-dioxo-N-(2,4,6-trifluorobenzyl)-1,4,5,6,7,11-hexahydro-3H-2,7-methanopyrido[1,2-a][1,4]diazonine-10-carboxamide] | – | – | 14.2 | 0.434 | – | – | – | – | 22800 | 1.81 |
| C[C@@H]1C=C[C@H](CF)N2C[C@H]1n1cc(C(=O)NCc3ccc(F)cc3F)c(=O)c(O)c1C2=O [Example 192, (3R,6R,7S)—N-(2,4-difluorobenzyl)-3-(fluoromethyl)-12-hydroxy-6-methyl-1,11-dioxo-1,6,7,11-tetrahydro-3H-2,7-methanopyrido[1,2-a][1,4]diazonine-10-carboxamide] | – | – | 6.57 | 0.252 | – | – | – | 0.913 | 5570 | – |
| C[C@H]1OC[C@H](C)N2C[C@H]1n1cc(C(=O)NCc3c(F)cc(F)cc3F)c(=O)c(O)c1C2=O [Example 195, (3S,6R,7R)-12-hydroxy-3,6-dimethyl-1,11-dioxo-N-(2,4,6-trifluorobenzyl)-1,3,4,6,7,11-hexahydro-2,7-methanopyrido[1,2-d][1,4,7]oxadiazonine-10-carboxamide] | – | – | 10.4 | 0.441 | – | – | – | 1.73 | 16700 | – |
| C[C@@H]1CO[C@H](C)[C@H]2CN1C(=O)c1c(O)c(=O)c(C(=O)NCc3c(F)cc(F)cc3F)cn12 [Example 196, (3R,6R,7R)-12-hydroxy-3,6-dimethyl-1,11-dioxo-N-(2,4,6-trifluorobenzyl)-1,3,4,6,7,11-hexahydro-2,7-methanopyrido[1,2-d][1,4,7]oxadiazonine-10-carboxamide] | – | – | 14.3 | 0.469 | – | – | – | 2.08 | 25900 | – |
| C[C@@H]1CO[C@H](C)[C@H]2CN1C(=O)c1c(O)c(=O)c(C(=O)NCc3ccc(F)cc3F)cn12 [Example 197, (3R,6R,7R)—N-(2,4-difluorobenzyl)-12-hydroxy-3,6-dimethyl-1,11-dioxo-1,3,4,6,7,11-hexahydro-2,7-methanopyrido[1,2-d][1,4,7]oxadiazonine-10-carboxamide] | – | – | 8.35 | 0.589 | – | – | – | 1.49 | 22400 | – |
| (7R,13R)—N-(2,4-difluorobenzyl)-12-hydroxy-13-methyl-1,11-dioxo-1,4,5,6,7,11-hexahydro-3H-2,7-methanopyrido[1,2-a][1,4]diazonine-10-carboxamide [Example 7] | 19.9 | 25400 | – | – | – | – | – | – | – | – |
